Data on 25 compounds can be found in US20090221829A1 (priority 2005, published 2009).

In one data set the test system is various kinds of Candida. Nature of the data set: MIC (Minimal Inhibitory Concentration) data. Format: cell-based. Particulars: unit assumed.
For data set [1], the system named is Candida albicans(KCTC 1940), Aspergillus niger (ATCC 9642) and Saccharomyces cerevisiae. Nature of the data set: Relative antifungal activity by agar dilution method (vs Miconazole).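 Also: scores 5 to 7 mean a lower fungicidal concentration than Miconazole so higher is more potent.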 Format: cell-based. The source says:
Novel compounds represented by the above chemical formula (I), and the relative activities in accordance with the agar dilution method in Sabouraud dextrose agar media, Czapek agar media and Yeast Extract-Peptone-Dextrose agar media for Candida albicans(KCTC 1940), Aspergillus niger (ATCC 9642) and Saccharomyces cerevisiae are described respectively in following Table 1.
(In general: Agar dilution tests growth on a series of plates holding different concentrations.)

[2] abbreviates: agar dilution method, fungicidal concentration relative to control drug Miconazole (=4).
The mark [3] stands for this setting: antifungal activity relative to Miconazole, agar dilution.

SMILES strings stand for the structures. ≈ marks a conversion by molar mass, not a printed value. Where a name gives a salt, the structure may show the parent alone.

`CCCCc1ccc(C2=[N+](Cc3ccccc3F)CCc3cc4c(cc32)OCO4)cc1.[Cl-]` yielded a melting point of 101 °C.
The same measure, in the same setting: the value for `CC(C)(C)c1ccc(C2=[N+](Cc3ccccc3F)CCc3cc4c(cc32)OCO4)cc1.[Cl-]` was 148 °C; that for `CC(C)C1=[N+](Cc2ccccc2F)CCc2cc3c(cc21)OCO3.[Cl-]` was 114 °C.
Still for that read-out and setting: the value for `CCCCCCCC1=[N+](Cc2ccccc2F)CCc2cc3c(cc21)OCO3.[Cl-]` was 94 °C; that for `COc1cc2c(cc1OC)C(CCc1ccc(C(C)(C)C)cc1)=[N+](Cc1ccccc1F)CC2` (as salt: chloride) [Compound No. 124, 1-(2-(4-t-butylphenyl))ethyl-2-(2-fluorophenyl)methyl-3,4-dihydro-6,7-dimethoxyisoquinolinium chloride] was 103 °C; that for `COc1ccc(C[N+]2=C(CCc3ccc(C(C)(C)C)cc3)c3cc(OC)c(OC)cc3CC2)cc1OC` (as salt: chloride) [Compound No. 125, 1-(2-(4-t-butylphenyl))ethyl-2-(3,4-dimethoxyphenyl)methyl-3,4-dihydro-6,7-dimethoxyisoquinolinium chloride] was 100 °C.
As for `C[C@@H]1[C@H](O)[C@@H](C)/C=C/C=C/C=C/C=C/C=C/C=C/C=C/[C@H](O[C@@H]2O[C@H](C)[C@@H](O)[C@H](N)[C@@H]2O)C[C@@H]2O[C@](O)(C[C@@H](O)C[C@@H](O)[C@H](O)CC[C@@H](O)C[C@@H](O)CC(=O)O[C@H]1C)C[C@H](O)[C@H]2C(=O)O` [Amphotericin B, reference compound], the MIC against various kinds of Candida (C. albicans ATCC 11651) was determined as 1.56 mg/L (≈ 1.69 µM); in the data set with various kinds of Candida (C. albicans ATCC 28838), 3.12 mg/L (≈ 3.38 µM); with various kinds of Candida (C. albicans IFO 1385), 1.56 mg/L (≈ 1.69 µM); in the data set with various kinds of Candida (C. albicans OY-003), 0.78 mg/L (≈ 0.844 µM); in the data set with various kinds of Candida (C. albicans OY-019), 0.4 mg/L (≈ 0.433 µM); in the data set on various kinds of Candida (C. albicans U.K), 3.12 mg/L (≈ 3.38 µM). Besides, the MIC against various kinds of Candida (C. albicnas ATCC 10231) came to 1.56 mg/L (≈ 1.69 µM); against various kinds of Candida (C. glabrata), 1.56 mg/L (≈ 1.69 µM); in the data set with various kinds of Candida (C. glulliermondi) it was 1.56 mg/L (≈ 1.69 µM); in the data set with various kinds of Candida (C. krusei (KCTC7273)) it was 0.78 mg/L (≈ 0.844 µM); against various kinds of Candida (C. parapsilosis) it was 3.12 mg/L (≈ 3.38 µM).
Regarding `CCCCCCCCCCCC1=[N+](c2ccc(C(C)(C)C)cc2)CCc2cc(CNC(=O)OCC)c(OC)cc21.[Br-]` [Compound No. 116, ethyl 3,4-dihydro-7-methoxy-6-(4-t-butylphenyl)-1-undecylisoquinolinium-6-ylmethylcabamate bromide], in data set [1] (setting [2]), the “Relative Activity” value is recorded as 2.
On the same count and under the same terms, the value for `CCCCCCCCCCCC1=[N+](c2ccc(C(F)(F)F)cc2)CCc2cc(CNC(=O)OCC)ccc21.[Br-]` [Compound No. 117, Ethyl 3,4-dihydro-1-undecylisoquinolinium-2-(4-trifluoromethylphenyl)-6-ylmethylcabamate bromide] was 4; that for `CCCCCCCCCCCC1=[N+](Cc2ccc(NC(=O)OCC)c(NC(=O)OCC)c2)CCc2cc(OC)c(OC)cc21.[Cl-]` [Compound No. 122, 6,7-dimethoxy-2-(3,4-bis(ethoxy Carbonylamino)phenyl)methyl-3,4-dihydro-1-undecylisoquinolinium chloride] was 2; that for `CCCC1=[N+](Cc2ccc(C(C)(C)C)cc2)CCc2cc(OC)c(OC)cc21.[Cl-]` [Compound No. 123, 1-propyl-2-(4-t-butylphenyl)methyl-3,4-dihydro-6,7-dimethoxyisoquinolinium chloride] was 6.
The same measure, in the same setting: the value for `COc1cc2c(cc1OC)C(CCc1ccc(C(C)(C)C)cc1)=[N+](Cc1ccccc1F)CC2` [Compound No. 124, 1-(2-(4-t-butylphenyl))ethyl-2-(2-fluorophenyl)methyl-3,4-dihydro-6,7-dimethoxyisoquinolinium chloride] was 2; that for `COc1ccc(C[N+]2=C(CCc3ccc(C(C)(C)C)cc3)c3cc(OC)c(OC)cc3CC2)cc1OC` [Compound No. 125, 1-(2-(4-t-butylphenyl))ethyl-2-(3,4-dimethoxyphenyl)methyl-3,4-dihydro-6,7-dimethoxyisoquinolinium chloride] was 2.
On to `COc1cc2c(cc1OC)C(CCc1ccc(C(C)(C)C)cc1)=[N+](Cc1ccc(C(F)(F)F)cc1)CC2.[Cl-]` [Compound No. 129, 1-(2-(4-t-butylphenyl))ethyl-2-(4-trifluoromethylphenyl)methyl-3,4-dihydro-6,7-dimethoxy isoquinolinium chloride], for which the “Relative Activity” value in data set [1] (setting [2]) was 4.
On the same count and under the same terms, the value for `COc1cc2c(cc1OC)C(CCc1ccc(C(C)(C)C)cc1)=[N+](Cc1c(F)c(F)c(F)c(F)c1F)CC2.[Cl-]` [Compound No. 130, 1-(2-(4-t-butylphenyl))ethyl-2-(2,3,4,5,6-pentafluorophenyl)methyl-3,4-dihydro-6,7-dimethoxy isoquinolinium chloride] was 4; that for `COc1cc2c(cc1OC)C(CCc1ccc(C(C)(C)C)cc1)=[N+](Cc1c(F)c(F)c(C(F)(F)F)c(F)c1F)CC2.[Cl-]` [Compound No. 131, 1-(2-(4-t-butylphenyl))ethyl-2-(2,3,5,6-tetrafluoro-4-trifluoromethylphenyl)methyl-3,4-dihydro-6,7-dimethoxy isoquinolinium chloride] was 4.
`COc1cc2c(cc1OC)C(CCc1ccc(C(C)(C)C)cc1)=[N+](Cc1cccc(OC)c1OCc1ccc(C(F)(F)F)cc1)CC2` [Compound No. 132, 1-(2-(4-t-butylphenyl))ethyl-2-(2-(4-trifluoromethylbenzyloxy)-3-methoxyphenyl)methyl-3,4-dihydro-6,7-dimethoxy isoquinolinium chloride]: the MIC in the data set with various kinds of Candida (C. albicans ATCC 11651) turned out to be 3.12 mg/L; in the data set on various kinds of Candida (C. albicans ATCC 28838), 1.56 mg/L; with various kinds of Candida (C. albicans IFO 1385), 6.25 mg/L; with various kinds of Candida (C. albicans OY-003), 3.12 mg/L; against various kinds of Candida (C. albicans OY-019), 3.12 mg/L; against various kinds of Candida (C. albicans U.K), 1.56 mg/L. In addition, the MIC was 12.5 mg/L against various kinds of Candida (C. glabrata), 3.12 mg/L in the data set with various kinds of Candida (C. glulliermondi), 1.56 mg/L against various kinds of Candida (C. krusei (KCTC7273)) and 6.5 mg/L in the data set with various kinds of Candida (C. parapsilosis). Moreover, in data set [1] (setting [2]), the “Relative Activity” value is 1.
With `COc1cc2c(cc1OC)C(CCc1ccc(C(C)(C)C)cc1)=[N+](Cc1cccc(OC)c1OCc1c(F)cccc1Cl)CC2` [Compound No. 133, 1-(2-(4-t-butylphenyl))ethyl-2-(2-(2-chloro-6-fluorobenzyloxy)-3-methoxyphenyl)methyl-3,4-dihydro-6,7-dimethoxyisoquinolinium chloride], the “Relative Activity” value in data set [1] (setting [2]) is on record as 1.
Turning to `COc1cc2c(cc1OC)C(CCc1ccc(C(C)(C)C)cc1)=[N+](Cc1cccc(OC)c1OCc1c(F)c(F)c(C(F)(F)F)c(F)c1F)CC2` [Compound No. 135, 1-(2-(4-t-butylphenyl))ethyl-2-(2-(2,3,5,6-tetrafluoro-4-trifluoromethylbenzyloxy)-3-methoxyphenyl)methyl-3,4-dihydro-6,7-dimethoxy isoquinolinium chloride], the MIC against various kinds of Candida (C. albicans ATCC 11651) was 6.25 mg/L; against various kinds of Candida (C. albicans ATCC 28838) it was 3.12 mg/L; with various kinds of Candida (C. albicans IFO 1385), 6.25 mg/L; in the data set on various kinds of Candida (C. albicans OY-003), 3.12 mg/L; with various kinds of Candida (C. albicans OY-019), 6.25 mg/L; with various kinds of Candida (C. albicans U.K), 6.25 mg/L. For the same compound, the MIC in the data set on various kinds of Candida (C. glabrata) was 12.5 mg/L; in the data set with various kinds of Candida (C. glulliermondi), 3.12 mg/L; with various kinds of Candida (C. krusei (KCTC7273)) it was 1.56 mg/L; against various kinds of Candida (C. parapsilosis), 12.5 mg/L. In addition, in data set [1] (setting [2]), the “Relative Activity” value turned out to be 2.
In the case of `COc1cc2c(cc1OC)C(CCc1ccc(C(C)(C)C)cc1)=[N+](Cc1cccc(OC)c1OCc1cccc(OC)c1OC)CC2.[Cl-]` [Compound No. 136, 1-(2-(4-t-butylphenyl))ethyl-2-(2-(2,3-dimethoxybenzyloxy)-3-methoxyphenyl)methyl-3,4-dihydro-6,7-dimethoxy isoquinolinium chloride], in data set [1] (setting [2]), the “Relative Activity” value was found to be 4.
Consider `CCCCCCCCCCCC1=[N+](Cc2ccc(C(F)(F)F)cc2)CCc2cc(F)ccc21.[Cl-]` [Compound No. 137, 1-undecyl-2-(4-trifluoromethylphenyl)methyl-3,4-dihydro-6-fluoro isoquinolinium chloride], for which the “Relative Activity” value in data set [1] (setting [2]) is listed as 1.
Regarding `COc1cc2cc[n+](Cc3c(F)cccc3Cl)cc2cc1OC.[Cl-]` [Compound No. 141, 2-(2-chloro-6-fluorophenyl)methyl-6,7-dimethoxyisoquinolinium chloride], the “Relative Activity” value in data set [1] (setting [3]) was 6.
Same read-out and setting: to `COc1cc2cc[n+](Cc3ccc(C(C)(C)C)cc3)cc2cc1OC.[Cl-]` [Compound No. 142, 2-(4-t-butylphenyl)methyl-6,7-dimethoxy-isoquinolinium chloride] belongs 6; to `CCCCCCCCCCCc1c2cc(OC)c(OC)cc2cc[n+]1Cc1ccc(C(C)(C)C)cc1.[Cl-]` [Compound No. 146, 1-undecyl-2-(4-t-butylphenyl)methyl-6,7-dimethoxyisoquinolinium chloride], 2.
`COc1cc2cc[n+](Cc3cccc(OC)c3OCc3ccc(C(F)(F)F)cc3)c(CCc3ccc(C(C)(C)C)cc3)c2cc1OC` [Compound No. 149, 1-(2-(4-t-butylphenyl))ethyl-2-(2-(4-trifluoromethylbenzyloxy)-3-methoxyphenyl)methyl-6,7-dimethoxyisoquinolinium chloride]: the MIC against various kinds of Candida (C. albicans ATCC 11651) is 0.78 mg/L; against various kinds of Candida (C. albicans ATCC 28838), 1.56 mg/L; against various kinds of Candida (C. albicans IFO 1385), 3.12 mg/L; in the data set on various kinds of Candida (C. albicans OY-003), 0.78 mg/L; with various kinds of Candida (C. albicans OY-019), 1.56 mg/L; in the data set on various kinds of Candida (C. albicans U.K) it was 0.78 mg/L. The MIC is 0.78 mg/L in the data set with various kinds of Candida (C. albicnas ATCC 10231); 6.25 mg/L in the data set with various kinds of Candida (C. glabrata); 1.56 mg/L against various kinds of Candida (C. glulliermondi); 1.56 mg/L against various kinds of Candida (C. krusei (KCTC7273)); 6.25 mg/L in the data set on various kinds of Candida (C. parapsilosis). In addition, in data set [1] (setting [3]), the “Relative Activity” value is on record as 1.

The term melting point denotes the temperature, or range, at which the solid turns liquid. For orientation: MIC means the lowest concentration found to suppress growth.
